Tested on: C6 glioma cells
Experiment: G1 synchronized by Ara-C, flow cytometry
Format: cell-based, rat
Settings: 41.6 nM Ara-C for 12 hours
Description: At indicated time points (0, 6, 12 and 24 hr), >10^6 cells were collected and fixed in 70% ethanol over 1 hour at −20° C. After staining with PI as described, DNA content of ten thousand cells was analyzed by flow cytometry.
To investigate the influence of MJ-66 on normal glia such as human glia cell line SVGP12 and rat primary glia cells, cells were treated with different concentrations of MJ-66 in vitro (0.00625, 0.0125, 0.025, 0.05, 0.1 and 1 μM) for different time durations (0, 6, 12 and 24 hours) and the cell viability was assessed by MTS assay. Cells alone or treated with DMSO were used as control. […] However, most glia cells in animals are static and their proliferation rate is almost silent. Therefore, cytosine arabinoside (Ara-C), a DNA synthesis inhibitor, was further used to inhibit glioma cell proliferation and glioma cells were then treated with MJ-66 or DMSO as described in “General materials and methods”. Specifically, after C6 glioma cells were treated with 41.6 nM Ara-C for 12 hours, and then treated with solvent (DMSO) or 60 nM MJ-66 for 0, 6, 12 and 24 hours, the cell cycle distributions and DNA content of the cells were monitored by flow cytometry with propidium iodide staining C6 glioma cells treated with 41.6 nM Ara-C for 12 hours (12 hr) were detected by flow cytometry with propidium iodide staining as control.

Nc1ccn([C@@H]2O[C@H](CO)[C@@H](O)[C@@H]2O)c(=O)n1 [Ara-C, cytosine arabinoside, reference compound]
cell cycle state of C6 glioma cells: G1 arrest
